# Activity calls are given as the source filed them.
# Tests used:
# [1] = biological target: T1, Kappa-type opioid receptor (Homo sapiens, UniProt P41145); type: functional
# [2] = biological target: Heat shock protein HSP 90-alpha (Homo sapiens, UniProt P07900); type: functional, organism-based
# [3] = C. albicans growth with fluconazole, confirmation, fluorescence, retest (AID 2467); type: functional, cell-based
# [4] = biological target: Nucleotide-binding oligomerization domain-containing protein 2 (Homo sapiens, UniProt Q9HC29); experiment: NOD2 signaling inhibitors, cell-based, luminescence, uHTS, HEK293 (AID 1566); type: functional
# BJ [5] = experiment: cytotoxicity toward BJ-TERT fibroblasts, dose response, cell-based, RAS-independent, luminescence (AID 1933); type: functional; conditions: Homo sapiens
# [6] = biological target: ATP-dependent molecular chaperone HSP82 (Candida albicans (strain WO-1) (Yeast), UniProt C4YTQ8); experiment: loss of DOC-induced GRE-beta-galactosidase reporter signal, dose response, Hsp90 inhibitor project, S. cerevisiae, luminescence (AID 2400); type: functional, cell-based;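 also: beta-galactosidase luminescence from glucocorticoid response element reporter as proxy for Hsp90 function; inhibitor potency where signal loss means Hsp90 inhibition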
# HEK293 [7] = experiment: cells; type: functional, cell-based; conditions: Homo sapiens
# Streptococcus = experiment: Group A Streptococcus viability loss, dose response, counter-screen for streptokinase expression inhibitor project, luminescence, BacTiterGlo (AID 1915); type: functional, organism-based;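 also: potency for reduction of bacterial viability or growth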
# [8] = biological target: T1, Kappa-type opioid receptor; type: functional; remark: listed apart in the source
# INS1 = experiment: beta cell apoptosis inhibitors, cytokine rescue, dose response, luminescence, retest (AID 449756); type: functional, cell-based; conditions: Rattus norvegicus;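 also: cell death triggered by IL-1 beta plus TNF-alpha plus IFN-gamma mixture; protective hits raise ATP signal compared with cytokine alone wells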
# [9] = cytotoxicity toward DRD oncogenic fibroblasts, dose response, cell-based, non-viral oncogenic, luminescence (AID 1934); type: functional; conditions: Homo sapiens
# HEK293 [10] = experiment: NOD1 signaling inhibitors, primary screen, cell-based, luminescence, uHTS (AID 1578); type: functional; conditions: Homo sapiens
# Beta-galactosidase = Beta-galactosidase (Escherichia coli, UniProt Q8VNN2); type: functional
# BJ [11] = experiment: cells; type: functional, cell-based; conditions: Homo sapiens
# [12] = biological target: T2, Serine/threonine-protein phosphatase (Candida dubliniensis (strain CD36 / CBS 7987 / NCPF 3949 / NRRLY-17841) (Yeast), UniProt B9W6M3); experiment: calcineurin pathway inhibitors in yeast reporter, dose response, S. cerevisiae, CDRE-lacZ, luminescence, secondary (AID 2388); type: functional, cell-based;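 also: yeast reporter cells carrying a calcineurin-responsive lacZ construct stimulated with calcium chloride; luminescent beta-galactosidase reporter signal in whole cells rather than isolated phosphatase activity; potency for inhibition where a drop in reporter signal means calcineurin blockade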
# T2 sequence (B9W6M3 whole entry): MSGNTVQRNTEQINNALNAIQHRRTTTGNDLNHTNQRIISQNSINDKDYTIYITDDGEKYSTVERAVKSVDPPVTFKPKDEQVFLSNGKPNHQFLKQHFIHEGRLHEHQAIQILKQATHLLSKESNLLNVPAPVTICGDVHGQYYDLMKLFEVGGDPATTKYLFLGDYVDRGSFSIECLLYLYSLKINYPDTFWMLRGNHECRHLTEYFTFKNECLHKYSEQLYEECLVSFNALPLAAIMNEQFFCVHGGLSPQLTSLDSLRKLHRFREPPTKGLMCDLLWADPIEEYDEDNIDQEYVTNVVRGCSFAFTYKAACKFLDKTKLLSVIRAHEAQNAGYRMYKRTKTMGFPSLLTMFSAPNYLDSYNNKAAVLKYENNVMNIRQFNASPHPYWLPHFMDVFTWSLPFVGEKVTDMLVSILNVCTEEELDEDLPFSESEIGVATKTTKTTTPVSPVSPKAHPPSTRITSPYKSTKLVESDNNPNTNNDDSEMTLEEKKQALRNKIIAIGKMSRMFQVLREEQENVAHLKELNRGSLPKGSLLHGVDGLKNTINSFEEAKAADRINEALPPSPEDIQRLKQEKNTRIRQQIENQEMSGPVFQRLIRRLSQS
# HEK293 [13] = experiment: NOD2 signaling inhibitors in MDP-stimulated cells, cell-based, uHTS, luminescence (AID 2001); type: functional; conditions: Homo sapiens
# HEK293 [14] = experiment: cells; type: functional, cell-based; conditions: Homo sapiens; remark: listed apart in the source
# HEK293 [15] = experiment: cells; type: functional, cell-based; conditions: Homo sapiens; remark: listed apart in the source
# [16] = NIH-3T3 fibroblast cytotoxicity, dose response, cytotoxicity control, cell-based, fluorescence, Alamar Blue, secondary assay (AID 2327); type: functional;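 also: NIH-3T3 mouse fibroblasts cultured with fluconazole at 8 µg/mL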
# BJ [17] = experiment: cytotoxicity toward BJ-TERT-LT-ST fibroblasts, dose response, cell-based, RAS-independent, luminescence (AID 1935); type: functional; conditions: Homo sapiens;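 also: BJ fibroblasts immortalized with TERT plus LT and ST oncogenes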
# [18] = system: Streptococcus sp. 'group A'; experiment: growth inhibition of control SK(-) GAS strain, dose response, counter-screen for streptokinase expression inhibitor project, luminescence, kanamycin, BacTiterGlo, confirmation (AID 1900); type: functional, organism-based
# [19] = HEK293T cytotoxicity, dose response, cytotoxicity control for miR-122 modulator project, cell-based, inhibitor set, cherry-pick, set 2 (AID 720697); type: functional
# [20] = insulin promoter down-regulators in MIN6 cells, imaging, high-content screening, mouse beta cells (AID 1628); type: functional
# [21] = miR-122 activators in hepatoma reporter cells, dose response, cell-based, Huh7 psiCHECK-miR122, Renilla luciferase, cherry-picked (AID 651956); type: functional;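 also: huh7 hepatoma cells stably carrying a psiCHECK-2 miR-122 sensor plasmid; renilla luciferase signal reporting endogenous miR-122 activity after 48 h compound exposure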
# [22] = cytotoxicity in MIN6 insulinoma cells, dose response, cytotoxicity control, cell-based, mouse insulinoma (AID 2122); type: functional;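 also: confirmatory high-throughput counterscreen run to flag cytotoxic compounds; mouse MIN-6 beta cells carrying an insulin promoter eGFP reporter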
# [23] = cytotoxicity in HEK-293T cells, dose response, cytotoxicity control for TCR NF-kB inhibitor project, luminescence, T-cell screen hits (AID 489026); type: functional, cell-based;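 also: cells exposed to compound about 14 hours before the viability readout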
# [24] = biological target: T3, COUP transcription factor 2 (Homo sapiens, UniProt P24468); experiment: Luminescence-based cell-based high throughput dose response assay to identify inhibitors of COUP-TFII (NR2F2).; type: functional;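 also: HEK293 cells transiently cotransfected with COUP-TFII expression vector and reporter; luciferase reporter luminescence driven by COUP-TFII from the pX2-168 reporter plasmid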
# T3 sequence (P24468 whole entry): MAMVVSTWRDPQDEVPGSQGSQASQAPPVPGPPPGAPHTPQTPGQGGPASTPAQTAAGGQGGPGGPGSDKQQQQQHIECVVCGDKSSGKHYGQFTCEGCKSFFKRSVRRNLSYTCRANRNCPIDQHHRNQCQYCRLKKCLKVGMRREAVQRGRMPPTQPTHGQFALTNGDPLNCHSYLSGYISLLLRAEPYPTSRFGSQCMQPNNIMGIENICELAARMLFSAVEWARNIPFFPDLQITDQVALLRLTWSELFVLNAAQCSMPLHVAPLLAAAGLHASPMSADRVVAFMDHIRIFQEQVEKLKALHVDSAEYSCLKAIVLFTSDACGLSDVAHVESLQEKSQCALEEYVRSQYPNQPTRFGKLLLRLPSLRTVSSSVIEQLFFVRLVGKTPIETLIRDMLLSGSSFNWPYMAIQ
# Escherichia coli = experiment: microbe, parasite or virus in culture
# [25] = biological target: DNA dC->dU-editing enzyme APOBEC-3G (Homo sapiens, UniProt Q9HC16); type: functional;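 also: Dose-response counterscreen measuring inhibition of APOBEC3G DNA deaminase activity, run while confirming APOBEC3A inhibitors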
# [26] = biological target: DNA dC->dU-editing enzyme APOBEC-3A (Homo sapiens, UniProt P31941); experiment: Dose Response confirmation of small molecule APOBEC3A DNA Deaminase Inhibitors via a fluorescence-based single-stranded DNA deaminase assay. [Related pubchem assays (depositor defined):AID493011, AID493024]; type: functional
# [27] = biological target: T4, RNA-binding protein pos-1 (Caenorhabditis elegans, UniProt G5EF15); experiment: inhibitors of POS-1/mex-3 RNA binding, dose response, biochemical, fluorescence polarization (AID 1964);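 also: purified POS-1 fused to maltose binding protein made in E. coli; potency of compounds blocking POS-1 binding to fluorescent RNA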
# T4 sequence (G5EF15 whole entry): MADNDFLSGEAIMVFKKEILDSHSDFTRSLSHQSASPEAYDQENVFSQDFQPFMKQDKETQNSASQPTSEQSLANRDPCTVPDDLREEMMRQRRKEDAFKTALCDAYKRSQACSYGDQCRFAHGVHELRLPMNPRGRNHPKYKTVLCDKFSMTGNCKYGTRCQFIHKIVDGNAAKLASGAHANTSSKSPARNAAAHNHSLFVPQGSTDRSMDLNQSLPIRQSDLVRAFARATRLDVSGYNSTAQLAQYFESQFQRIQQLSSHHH
# [28] = biological target: T5, Zinc finger protein mex-5 (Caenorhabditis elegans, UniProt Q9XUB2); experiment: MEX-5/TCR-2 RNA interaction inhibitors, dose response, biochemical, C. elegans, fluorescence polarization (AID 1960)
# T5 sequence (Q9XUB2 whole entry): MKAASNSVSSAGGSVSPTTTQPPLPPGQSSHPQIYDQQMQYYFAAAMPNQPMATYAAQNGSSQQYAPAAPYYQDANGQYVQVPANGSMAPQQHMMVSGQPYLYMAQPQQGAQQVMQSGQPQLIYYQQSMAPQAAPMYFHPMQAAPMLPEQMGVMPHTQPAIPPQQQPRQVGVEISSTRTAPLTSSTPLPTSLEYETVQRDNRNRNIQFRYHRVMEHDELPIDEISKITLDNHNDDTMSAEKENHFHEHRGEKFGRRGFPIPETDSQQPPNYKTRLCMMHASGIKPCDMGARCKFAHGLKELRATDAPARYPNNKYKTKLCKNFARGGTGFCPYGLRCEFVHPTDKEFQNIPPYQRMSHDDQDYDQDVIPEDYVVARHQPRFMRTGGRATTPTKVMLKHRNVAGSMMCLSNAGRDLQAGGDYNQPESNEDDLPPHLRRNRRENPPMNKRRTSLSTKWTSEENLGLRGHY
# [29] = Counterscreen for activators of the function of SWI/SNF related, matrix associated, actin dependent regulator of chromatin, subfamily a, member 2 (SMARCA2, BRM): Luminescence-based cell-based high throughput dose response assay to identify non-selective compounds using the VP16 reporter assay.; type: functional
# [30] = biological target: SWI/SNF-related matrix-associated actin-dependent regulator of chromatin subfamily A member 2 (Homo sapiens, UniProt P51531); experiment: Luminescence-based cell-based high throughput dose response assay to identify activators of the function of SWI/SNF related, matrix associated, actin dependent regulator of chromatin, subfamily a, member 2 (SMARCA2, BRM).; type: functional
# T1 sequence (P41145 whole entry): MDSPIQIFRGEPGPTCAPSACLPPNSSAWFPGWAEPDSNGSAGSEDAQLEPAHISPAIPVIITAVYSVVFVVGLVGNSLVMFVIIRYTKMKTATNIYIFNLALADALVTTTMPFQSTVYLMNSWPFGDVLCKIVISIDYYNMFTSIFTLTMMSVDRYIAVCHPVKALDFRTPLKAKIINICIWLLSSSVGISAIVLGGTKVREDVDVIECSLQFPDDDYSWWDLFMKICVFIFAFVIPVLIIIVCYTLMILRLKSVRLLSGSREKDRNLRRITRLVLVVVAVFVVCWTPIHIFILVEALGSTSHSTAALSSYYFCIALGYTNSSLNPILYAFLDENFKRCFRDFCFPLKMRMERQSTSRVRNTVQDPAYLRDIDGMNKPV
# ATP-dependent molecular chaperone HSP82, sequence (C4YTQ8 whole entry): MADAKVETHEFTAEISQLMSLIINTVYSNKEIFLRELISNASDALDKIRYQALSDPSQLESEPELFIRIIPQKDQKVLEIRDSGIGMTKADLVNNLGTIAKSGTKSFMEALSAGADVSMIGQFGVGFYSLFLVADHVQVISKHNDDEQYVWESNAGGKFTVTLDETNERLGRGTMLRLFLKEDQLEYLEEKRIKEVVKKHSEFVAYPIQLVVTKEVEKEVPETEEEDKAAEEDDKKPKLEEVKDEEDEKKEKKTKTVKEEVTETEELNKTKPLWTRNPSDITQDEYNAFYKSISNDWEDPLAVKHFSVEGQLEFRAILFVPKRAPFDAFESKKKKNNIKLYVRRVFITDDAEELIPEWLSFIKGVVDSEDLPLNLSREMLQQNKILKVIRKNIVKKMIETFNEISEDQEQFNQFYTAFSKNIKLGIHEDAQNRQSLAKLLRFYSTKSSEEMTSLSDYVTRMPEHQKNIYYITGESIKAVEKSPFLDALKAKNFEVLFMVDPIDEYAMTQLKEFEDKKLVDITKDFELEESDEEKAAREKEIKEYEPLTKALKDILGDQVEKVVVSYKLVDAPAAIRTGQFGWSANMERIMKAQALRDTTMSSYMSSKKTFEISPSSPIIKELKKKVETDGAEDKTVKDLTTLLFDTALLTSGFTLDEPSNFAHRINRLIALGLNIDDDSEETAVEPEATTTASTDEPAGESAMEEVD
# DNA dC->dU-editing enzyme APOBEC-3A, sequence (P31941 whole entry, the tested form may be a part): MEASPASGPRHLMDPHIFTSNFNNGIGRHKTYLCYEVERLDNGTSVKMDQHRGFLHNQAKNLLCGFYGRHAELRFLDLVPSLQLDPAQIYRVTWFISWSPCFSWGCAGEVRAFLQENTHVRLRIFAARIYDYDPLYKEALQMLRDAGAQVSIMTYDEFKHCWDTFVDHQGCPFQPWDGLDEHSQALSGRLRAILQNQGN
# DNA dC->dU-editing enzyme APOBEC-3G, sequence (Q9HC16 whole entry): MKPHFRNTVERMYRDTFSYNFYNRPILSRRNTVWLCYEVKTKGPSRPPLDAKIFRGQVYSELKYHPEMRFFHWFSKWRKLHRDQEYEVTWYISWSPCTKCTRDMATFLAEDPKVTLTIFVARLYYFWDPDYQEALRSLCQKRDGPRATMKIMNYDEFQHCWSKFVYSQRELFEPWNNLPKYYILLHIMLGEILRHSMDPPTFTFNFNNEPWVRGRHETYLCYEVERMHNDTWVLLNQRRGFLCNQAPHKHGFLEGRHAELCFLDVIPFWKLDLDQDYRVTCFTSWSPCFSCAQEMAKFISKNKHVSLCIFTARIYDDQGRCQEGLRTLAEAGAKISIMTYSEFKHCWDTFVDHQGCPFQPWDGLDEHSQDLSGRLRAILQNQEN
# Nucleotide-binding oligomerization domain-containing protein 2, sequence (Q9HC29 whole entry, the tested form may be a part): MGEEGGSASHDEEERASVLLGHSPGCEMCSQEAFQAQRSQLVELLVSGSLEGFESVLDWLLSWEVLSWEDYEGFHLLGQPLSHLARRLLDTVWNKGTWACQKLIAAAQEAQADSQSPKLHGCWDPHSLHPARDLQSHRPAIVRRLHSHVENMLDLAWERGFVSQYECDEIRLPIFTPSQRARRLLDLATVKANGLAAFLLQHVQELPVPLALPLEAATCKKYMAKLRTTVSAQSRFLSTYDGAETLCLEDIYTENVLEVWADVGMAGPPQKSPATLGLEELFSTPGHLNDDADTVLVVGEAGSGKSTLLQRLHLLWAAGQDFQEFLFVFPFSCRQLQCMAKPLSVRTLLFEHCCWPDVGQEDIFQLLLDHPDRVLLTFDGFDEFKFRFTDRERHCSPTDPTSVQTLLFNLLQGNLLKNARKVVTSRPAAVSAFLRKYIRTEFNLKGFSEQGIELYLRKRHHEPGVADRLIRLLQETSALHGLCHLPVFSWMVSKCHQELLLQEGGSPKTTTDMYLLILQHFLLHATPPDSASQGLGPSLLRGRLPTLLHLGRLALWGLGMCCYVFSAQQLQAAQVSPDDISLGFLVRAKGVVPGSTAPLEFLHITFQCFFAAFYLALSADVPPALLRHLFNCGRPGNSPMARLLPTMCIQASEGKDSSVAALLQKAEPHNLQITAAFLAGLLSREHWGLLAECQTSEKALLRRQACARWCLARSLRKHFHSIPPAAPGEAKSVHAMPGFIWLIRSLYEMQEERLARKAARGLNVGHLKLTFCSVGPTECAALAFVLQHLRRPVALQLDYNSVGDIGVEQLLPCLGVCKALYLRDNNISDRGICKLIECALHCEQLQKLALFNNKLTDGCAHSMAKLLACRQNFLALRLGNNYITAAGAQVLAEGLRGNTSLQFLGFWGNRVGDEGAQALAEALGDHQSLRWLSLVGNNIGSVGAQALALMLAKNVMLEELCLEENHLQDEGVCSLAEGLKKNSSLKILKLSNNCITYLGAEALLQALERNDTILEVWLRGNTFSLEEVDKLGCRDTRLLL
# Beta-galactosidase, sequence (Q8VNN2 whole entry): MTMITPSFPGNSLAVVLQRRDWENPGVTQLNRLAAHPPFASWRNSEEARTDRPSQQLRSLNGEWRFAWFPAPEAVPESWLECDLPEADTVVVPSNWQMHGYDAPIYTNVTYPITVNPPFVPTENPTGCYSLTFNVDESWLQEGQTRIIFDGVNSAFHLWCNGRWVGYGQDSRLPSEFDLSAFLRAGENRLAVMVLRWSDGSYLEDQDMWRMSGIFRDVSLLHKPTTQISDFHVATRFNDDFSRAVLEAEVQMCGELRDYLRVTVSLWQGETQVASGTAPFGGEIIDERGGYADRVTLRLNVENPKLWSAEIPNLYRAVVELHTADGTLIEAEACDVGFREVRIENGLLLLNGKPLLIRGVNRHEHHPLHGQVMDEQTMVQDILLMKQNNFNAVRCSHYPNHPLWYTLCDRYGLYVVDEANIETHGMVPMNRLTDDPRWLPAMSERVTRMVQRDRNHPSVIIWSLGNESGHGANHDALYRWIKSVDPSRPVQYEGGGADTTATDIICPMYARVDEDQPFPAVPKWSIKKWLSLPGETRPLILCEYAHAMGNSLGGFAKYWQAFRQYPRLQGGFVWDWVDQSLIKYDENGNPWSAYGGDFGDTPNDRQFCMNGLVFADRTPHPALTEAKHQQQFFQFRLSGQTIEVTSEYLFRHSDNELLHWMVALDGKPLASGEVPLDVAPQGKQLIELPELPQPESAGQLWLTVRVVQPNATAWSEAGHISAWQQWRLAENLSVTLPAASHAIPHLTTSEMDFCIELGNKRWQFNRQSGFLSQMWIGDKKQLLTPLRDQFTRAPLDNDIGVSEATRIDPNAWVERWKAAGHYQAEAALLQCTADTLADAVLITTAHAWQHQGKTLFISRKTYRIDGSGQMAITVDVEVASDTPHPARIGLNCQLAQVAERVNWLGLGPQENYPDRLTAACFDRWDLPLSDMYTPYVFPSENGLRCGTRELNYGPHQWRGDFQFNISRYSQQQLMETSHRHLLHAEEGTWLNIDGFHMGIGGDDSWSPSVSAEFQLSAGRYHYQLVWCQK
smiles,measurement,setting,value
COc1cccc(N=Nc2ccc3cccnc3c2O)c1,IC50,[1],5.92 µM (active)
same,AC50,[2],5.71 µM (active)
same,EC50,[3],0.619 µM (active)
same,EC50,[4],> 20 µM (inactive)
same,EC50,BJ [5],6.69 µM (inconclusive)
same,EC50,[6],4.9 µM (active)
same,IC50,HEK293 [7],> 20 µM (inactive)
same,EC50,Streptococcus,2.53 µM (active)
same,IC50,[8],> 32 µM
same,AC50,INS1,2.26 µM (active)
same,EC50,[9],10.5 µM (active)
same,EC50,HEK293 [10],> 20 µM (inactive)
same,EC50,Beta-galactosidase,22 µM (active)
same,EC50,BJ [11],16.9 µM (inconclusive)
same,EC50,[12],> 180 µM (inactive)
same,IC50,HEK293 [13],3.15 µM (inactive)
same,IC50,HEK293 [14],5.21 µM (active)
same,IC50,HEK293 [15],> 20 µM (inactive)
same,EC50,[16],87.8 µM (active)
same,EC50,BJ [17],3.73 µM (inconclusive)
same,EC50,[18],0.068 µM (active)
COc1cc(-c2nnc3sc(C4CCCCC4)nn23)cc(OC)c1OC,AC50,[19],1.08 µM (active)
same,IC50,[20],0.981 µM (active)
same,AC50,[21],55.5 µM (active)
same,IC50,[22],9.75 µM (active)
CCCCn1c2c(c(=N)c3c1CCC3)CCC2,IC50,[20],1.47 µM (active)
same,IC50,[22],1.97 µM (active)
same,IC50,[23],> 80 µM (inactive)
same,IC50,[24],19.1 µM (inactive)
COCCn1c(-c2cccc([N+](=O)[O-])c2)nc2c1c(=O)[nH]c(=O)n2Cc1ccccc1,AC50,Escherichia coli,> 380 µM (inactive)
CCSc1nnc(-c2ccc(C)cc2)c2ccccc12,EC50,[3],0.305 µM (active)
same,EC50,[6],62.4 µM (active)
same,EC50,[12],24.7 µM (active)
same,EC50,[16],17.2 µM (active)
Cc1ccc(N=Nc2[nH]c3ccccc3c2O)cc1,IC50,[25],7.69 µM (active)
same,IC50,[26],4.8 µM (active)
same,EC50,[27],16 µM (active)
same,EC50,[28],25.7 µM (inconclusive)
same,EC50,[29],> 91.1 µM (inactive)
same,EC50,[30],> 91.1 µM (inactive)
Cc1nnc(C)c2c(C)n(C(C)c3ccccc3)c(C)c12 (stereo not drawn),IC50,[20],2.5 µM (active)
same,IC50,[22],2.6 µM (active)
CCO/C(O)=C1\C(C)=NC(=S)NC1c1cc(C)sc1C (stereo not drawn),AC50,Escherichia coli,147 µM (active)
